Measurements from patent US7018642B2 (The Procter & Gamble Company, priority 2001, dated 2006).

tested on: P. fluorescens strain ATCC 13525; assay: Biofilm prevention screen (96-well microplate, crystal violet); type: cell-based; conditions: Pseudomonas fluorescens, ATCC13525, 32 μM, positive = prevention, negative = enhancement of biofilm formation, quadruplicate, read-out: average percentage reduction of biofilm formed relative to DMSO controls
Experimental: (§1) Overnight cultures of 3 mL are made of P. aeruginosa strain PAO1 (grown in R2A medium (Handbook of Microbiological Media; CRC Press, 1997, second edition, R. M. Atlas, ed.), modified to omit Mg^2+ but to include 0.3–0.5% fructose (pH 7.0) and 3 μM ferrous ammonium sulfate), P. fluorescens strain ATCC 13525 (grown in R2A modified to omit Mg^2+ but to include 0.3–0.5% sodium pyruvate (pH 7.0)), S. epidermidis strain ATCC 35984 (grown in a ¼ dilution of TSB (Handbook of Microbiological Media; CRC Press, 1997, second edition, R. M. Atlas, ed.) supplemented with 1% fructose (pH 7.0) and 3 μM ferrous ammonium sulfate). To each type of growth medium, HEPES (pH 7.3) is optionally added to a final concentration of 10 mM.
(§2) To PS, PVC, or PP (preferably PP or PVC) round-bottom, 96-well microplates containing 100 μl per well of the respective growth medium as described above, compounds to be tested (dissolved in DMSO) are added and mixed, to give a final concentration of 250–500 μM. These microplates then also are used to make successive dilutions of the compounds in the same respective growth medium to yield microplates containing final concentrations of, for example, 160 μM and 32 μM of the same set of compounds. Control wells are included in the dilution series that contain only DMSO. From the 3 ml overnight cultures, each of the three dilution plate sets is inoculated with 5 μl per well of a 1:1 dilution in the same liquid growth media of the appropriate culture. The covered plate is then incubated with shaking, at 30° C. (for P. aeruginosa or P. fluorescens) or 37° C. (for S. epidermidis), at 200 rpm, for 16–26 hours, in a humidity controlled environment.
(§3) Cells present in biofilm attached to the microplate surface are stained with CV either after removal of the liquid from each well, followed by rinsing three times (aspiration and addition) with 150 μl per well phosphate buffered saline solution (PBS) and final addition of 100 μl per well of PBS, or by direct addition of stain to bacterial cultures without rinsing. To 100 μl per well of PBS or of bacterial culture, 25 μl/well of 1% CV solution (in ˜10% ethanol) is added. After incubation at room temperature for 45 minutes, the dye solution is removed from the plates. Residual dye is immediately removed by gentle rinsing with a stream of deionized water by filling and inverting the plates 4–5 times, or by using an automated pipettor. Rinsed plates are air-dried at room temperature for 0.5–2 hours. Bound dye is extracted by the addition of 150 μL per well of 95% ethanol, followed by vigorous mixing for 10–15 seconds and incubation for 45 minutes at room temperature without shaking. Subsequently, either undiluted or diluted (in ethanol) samples of extracted CV are transferred to flat bottom, polystyrene microtiter plates and absorbances at 586 nm were measured in a microplate reader. Readings from wells containing compounds are compared to the average of data from control wells that contain only DMSO. Replicate samples are measured, and results are reported as averages of the replicate well data points.
(§4) Data are expressed in terms of the average percentage reduction of biofilm formed in the presence of each compound, relative to the DMSO controls, for quadruplicate samples. Assays are run using the three compound concentrations indicated. Positive numbers indicate prevention of biofilm formation by a compound, and negative numbers indicate enhancement of biofilm formation by a compound (percentage coefficients of variation are ≦10%).

| SMILES | inhibition at 32 µM |
| --- | --- |
| CCCCCCCCNC(=O)[C@H]1CCCCN1C(=O)OC(C)(C)C [Compound 22, (R)-(+)-1-(tert-Butoxycarbonyl)-2-piperidinecarboxylic acid n-octyl amide] | 3% |
| CCCCCCCCCCNC(=O)[C@@H]1CCN1C(=O)OC(C)(C)C [Compound 285, N-(tert-Butoxycarbonyl)-(S)-(−)-2-azetidinecarboxylic acid n-decyl amide] | -12% |

same assay, conditions: Pseudomonas fluorescens, ATCC13525, 160 μM, positive = prevention, negative = enhancement of biofilm formation, quadruplicate, read-out: average percentage reduction of biofilm formed relative to DMSO controls

| SMILES | inhibition at 160 µM |
| --- | --- |
| CCCCCCCCNC(=O)[C@H]1CCCCN1C(=O)OC(C)(C)C [Compound 22, (R)-(+)-1-(tert-Butoxycarbonyl)-2-piperidinecarboxylic acid n-octyl amide] | 27% |
| CCCCCCCCCCNC(=O)[C@@H]1CCN1C(=O)OC(C)(C)C [Compound 285, N-(tert-Butoxycarbonyl)-(S)-(−)-2-azetidinecarboxylic acid n-decyl amide] | -44% |

same assay, conditions: Pseudomonas fluorescens, ATCC13525, 390 μM, positive = prevention, negative = enhancement of biofilm formation, quadruplicate, read-out: average percentage reduction of biofilm formed relative to DMSO controls

| SMILES | inhibition at 390 µM |
| --- | --- |
| CCCCCCCCNC(=O)[C@H]1CCCCN1C(=O)OC(C)(C)C [Compound 22, (R)-(+)-1-(tert-Butoxycarbonyl)-2-piperidinecarboxylic acid n-octyl amide] | 25% |
| CCCCCCCCCCNC(=O)[C@@H]1CCN1C(=O)OC(C)(C)C [Compound 285, N-(tert-Butoxycarbonyl)-(S)-(−)-2-azetidinecarboxylic acid n-decyl amide] | -32% |

tested on: P. aeruginosa strain PAO1; assay: as above; type: cell-based; conditions: Pseudomonas aeruginosa, 32 μM, positive = prevention, negative = enhancement of biofilm formation, quadruplicate, read-out: average percentage reduction of biofilm formed relative to DMSO controls
Experimental: as §1, §2, §3, §4

| SMILES | inhibition at 32 µM |
| --- | --- |
| CCCCCCCCNC(=O)[C@H]1CCCCN1C(=O)OC(C)(C)C [Compound 22, (R)-(+)-1-(tert-Butoxycarbonyl)-2-piperidinecarboxylic acid n-octyl amide] | 0% |
| CCCCCCCCCCNC(=O)[C@@H]1CCN1C(=O)OC(C)(C)C [Compound 285, N-(tert-Butoxycarbonyl)-(S)-(−)-2-azetidinecarboxylic acid n-decyl amide] | 7% |

same assay, conditions: Pseudomonas aeruginosa, 160 μM, positive = prevention, negative = enhancement of biofilm formation, quadruplicate, read-out: average percentage reduction of biofilm formed relative to DMSO controls

| SMILES | inhibition at 160 µM |
| --- | --- |
| CCCCCCCCNC(=O)[C@H]1CCCCN1C(=O)OC(C)(C)C [Compound 22, (R)-(+)-1-(tert-Butoxycarbonyl)-2-piperidinecarboxylic acid n-octyl amide] | -8% |
| CCCCCCCCCCNC(=O)[C@@H]1CCN1C(=O)OC(C)(C)C [Compound 285, N-(tert-Butoxycarbonyl)-(S)-(−)-2-azetidinecarboxylic acid n-decyl amide] | -20% |

same assay, conditions: Pseudomonas aeruginosa, 390 μM, positive = prevention, negative = enhancement of biofilm formation, quadruplicate, read-out: average percentage reduction of biofilm formed relative to DMSO controls

| SMILES | inhibition at 390 µM |
| --- | --- |
| CCCCCCCCNC(=O)[C@H]1CCCCN1C(=O)OC(C)(C)C [Compound 22, (R)-(+)-1-(tert-Butoxycarbonyl)-2-piperidinecarboxylic acid n-octyl amide] | -6% |
| CCCCCCCCCCNC(=O)[C@@H]1CCN1C(=O)OC(C)(C)C [Compound 285, N-(tert-Butoxycarbonyl)-(S)-(−)-2-azetidinecarboxylic acid n-decyl amide] | -21% |

tested on: S. epidermidis strain ATCC 35984; assay: as above; type: cell-based; conditions: Staphylococcus epidermidis, ATCC35984, 32 μM, positive = prevention, negative = enhancement of biofilm formation, quadruplicate, read-out: average percentage reduction of biofilm formed relative to DMSO controls
Experimental: as §1, §2, §3, §4

| SMILES | inhibition at 32 µM |
| --- | --- |
| CCCCCCCCNC(=O)[C@H]1CCCCN1C(=O)OC(C)(C)C [Compound 22, (R)-(+)-1-(tert-Butoxycarbonyl)-2-piperidinecarboxylic acid n-octyl amide] | -6% |
| CCCCCCCCCCNC(=O)[C@@H]1CCN1C(=O)OC(C)(C)C [Compound 285, N-(tert-Butoxycarbonyl)-(S)-(−)-2-azetidinecarboxylic acid n-decyl amide] | 2% |

same assay, conditions: Staphylococcus epidermidis, ATCC35984, 160 μM, positive = prevention, negative = enhancement of biofilm formation, quadruplicate, read-out: average percentage reduction of biofilm formed relative to DMSO controls

| SMILES | inhibition at 160 µM |
| --- | --- |
| CCCCCCCCNC(=O)[C@H]1CCCCN1C(=O)OC(C)(C)C [Compound 22, (R)-(+)-1-(tert-Butoxycarbonyl)-2-piperidinecarboxylic acid n-octyl amide] | -17% |
| CCCCCCCCCCNC(=O)[C@@H]1CCN1C(=O)OC(C)(C)C [Compound 285, N-(tert-Butoxycarbonyl)-(S)-(−)-2-azetidinecarboxylic acid n-decyl amide] | 17% |

same assay, conditions: Staphylococcus epidermidis, ATCC35984, 390 μM, positive = prevention, negative = enhancement of biofilm formation, quadruplicate, read-out: average percentage reduction of biofilm formed relative to DMSO controls

| SMILES | inhibition at 390 µM |
| --- | --- |
| CCCCCCCCNC(=O)[C@H]1CCCCN1C(=O)OC(C)(C)C [Compound 22, (R)-(+)-1-(tert-Butoxycarbonyl)-2-piperidinecarboxylic acid n-octyl amide] | 3% |
| CCCCCCCCCCNC(=O)[C@@H]1CCN1C(=O)OC(C)(C)C [Compound 285, N-(tert-Butoxycarbonyl)-(S)-(−)-2-azetidinecarboxylic acid n-decyl amide] | 66% |

tested on: P. fluorescens strain ATCC 13525; assay: Improved biofilm dispersion screen (already-formed biofilms, crystal violet); type: cell-based; conditions: Pseudomonas fluorescens, ATCC13525, 20 mM NaOH step, positive = dispersion, negative = enhancement of pre-existing biofilm, quadruplicate, read-out: average percentage reduction of biofilm relative to the two control values (dispersion)
Experimental: (§5) A modification of method disclosed in Reference Example 2, which greatly improves the sensitivity and reproducibility of the dispersion screen is hereby disclosed. […] In the modification described herein, compounds are added in the presence of the fresh liquid growth media, such that the resultant biofilms continue to grow, unless a test compound triggers their dispersion. Overnight cultures are made as above, and 100 μL of the appropriate liquid growth media are dispensed into duplicate 96 well microplates—in this fashion, two identical microplates are set up for each bacterial species to be assayed. Neither compounds nor DMSO are added prior to the inoculation of bacteria, and growth in the duplicate plates for 24 hours is allowed using the conditions specified in Reference Example 1. After growth of biofilm to be tested in the wells, cells present in biofilm attached to one of the duplicate microplates is stained with CV, quantitated as described in Reference Example 1, and the data for the entire plate averaged, resulting in a growth control value, t0. The remaining replicate of each microplate pairs is treated with compounds in DMSO, or DMSO alone for control wells, by first removing the cell suspensions from the wells, then adding fresh 100 μL volumes of the same appropriate liquid growth media, followed by direct addition and mixing of the compound DMSO solutions to give final compound concentrations of 390 μM. Incubation of the compound-containing microplates is then continued for an additional 22–26 hours using the same conditions described in Reference Example 1. Cell suspensions are then removed, 100 μL per well of a 0 mM NaOH (S. epidermidis), 20 mM NaOH (P. fluorescens), or 30 mM NaOH (P. aeruginosa) solution in PBS is added, and incubation at room temperature is allowed for 30 minutes. No addition of NaOH is made to the S. epidermidis suspension since a test assay indicated no amplification by base with S. epidermidis. The microplates are subsequently rinsed three times with 150 μL per well of PBS, followed by final liquid removal, staining with CV and quantitation as described in Reference Example 1. Data for each well that contained compound result in a compound value, R, and data for control wells that contained DMSO only are averaged to generate a second control value, t24. The effect of each compound tested on dispersion of the biofilm compared to the two control values is calculated thus: [formula] […] Data are expressed in terms of the average percentage reduction of biofilm formed in the presence of each compound, relative to the two control values, for quadruplicate samples. Assays are run as described above, using compound concentrations of 390 μM. Positive numbers indicate dispersion (reduction) of pre-existing biofilms by a compound, and negative numbers indicate enhancement (stimulation of growth) of pre-existing biofilms by a compound (percentage coefficients of variation are ≦15%).

| SMILES | inhibition at 390 µM |
| --- | --- |
| CCCCCCCCNC(=O)[C@H]1CCCCN1C(=O)OC(C)(C)C [Compound 22, (R)-(+)-1-(tert-Butoxycarbonyl)-2-piperidinecarboxylic acid n-octyl amide] | 0% |
| CCCCCCCCCCNC(=O)[C@@H]1CCN1C(=O)OC(C)(C)C [Compound 285, N-(tert-Butoxycarbonyl)-(S)-(−)-2-azetidinecarboxylic acid n-decyl amide] | -74% |

tested on: P. aeruginosa strain PAO1; assay: as above; type: cell-based; conditions: Pseudomonas aeruginosa, 30 mM NaOH step, positive = dispersion, negative = enhancement of pre-existing biofilm, quadruplicate, read-out: average percentage reduction of biofilm relative to the two control values (dispersion)
Experimental: as §5

| SMILES | inhibition at 390 µM |
| --- | --- |
| CCCCCCCCNC(=O)[C@H]1CCCCN1C(=O)OC(C)(C)C [Compound 22, (R)-(+)-1-(tert-Butoxycarbonyl)-2-piperidinecarboxylic acid n-octyl amide] | -54% |
| CCCCCCCCCCNC(=O)[C@@H]1CCN1C(=O)OC(C)(C)C [Compound 285, N-(tert-Butoxycarbonyl)-(S)-(−)-2-azetidinecarboxylic acid n-decyl amide] | -37% |

tested on: S. epidermidis strain ATCC 35984; assay: as above; type: cell-based; conditions: Staphylococcus epidermidis, ATCC35984, no NaOH, positive = dispersion, negative = enhancement of pre-existing biofilm, quadruplicate, read-out: average percentage reduction of biofilm relative to the two control values (dispersion)
Experimental: as §5

| SMILES | inhibition at 390 µM |
| --- | --- |
| CCCCCCCCNC(=O)[C@H]1CCCCN1C(=O)OC(C)(C)C [Compound 22, (R)-(+)-1-(tert-Butoxycarbonyl)-2-piperidinecarboxylic acid n-octyl amide] | 0% |
| CCCCCCCCCCNC(=O)[C@@H]1CCN1C(=O)OC(C)(C)C [Compound 285, N-(tert-Butoxycarbonyl)-(S)-(−)-2-azetidinecarboxylic acid n-decyl amide] | 0% |
